These results are taken from patent US10369124B2, “Dendrimer compositions and their use in treatment of diseases of the eye” (The Johns Hopkins University, priority 2014, dated 2019).

Data set [1] has as its system Iba-1+ microglia/macrophages in retina. Description: Retinal biodistribution of D-Cy5 by immunohistochemistry and confocal microscopy in ischemia/reperfusion (I/R) injury. Conditions: mouse, in vivo. Here is the method:
Animals & Ischemia reperfusion (I/R) injury. All procedures involving the animals conformed to the ARVO Statement for the Use of Animals in Ophthalmic and Vision Research. BALB/c albino mice, each weighing ˜25 grams, housed in Wilmer animal facility at Johns Hopkins were used for transport as well as I/R studies. All surgeries were performed under ketamine (100 mg/Kg) and Xylazine (10 mg/kg) peritoneal anaesthesia. Six mice were used in each group at each time point. I/R injury was performed in the left eye by following the procedure described elsewhere. Briefly, the anterior chamber was cannulated with 30 gauze needle attached to a line infusing saline. The saline system is mounted on to a custom-made saline reservoir and elevated to certain height (calibrated to 90 mm Hg). The IOP was elevated to 90 mm Hg for 90 minutes and I/R injury and shut off of choroidal circulation was evidenced by blanching of the posterior segment via fundus examination through the operating microscope. After ischemia, the needle was immediately withdrawn for immediate blood reperfusion. The right eye had no I/R injury and served as control.
Dendrimer injection and Animal sacrifice. Six days post I/R injury, BALB/c mice were injected with dendrimer either intravitreally or intravenously. […]
Immunohistochemistry and confocal microscopy. […] Sections were analysed on a Zeiss 510 confocal microscope. […]

Data set [2] in a line: Quantitative biodistribution of D-Cy5 in vital organs by fluorescence spectroscopy (FLS). The format is in vivo, BALB/c mice. Conditions: IV. Here is the method: Biodistribution analysis of D-Cy5 in vital organs. Twelve BALB-C mice weighing ˜25 gr BW were used for this study. Four animals were sacrificed at each time point: 24 hours, 72 hours and 21 days. Each mouse was injected via femoral vein with 600 μg of D-Cy5 in 100 μL of sterile PBS. At respective time point, the animals were euthanized and vital organs (heart, lungs, spleen, kidney, liver and eyes) were harvested immediately and organ wet weights were noted. Organs were snap frozen on dry ice, and stored at −80° C. until analysis. Upon analysis, the tissues were thawed and approximately 100-150 mg of tissue were measured and homogenized with 1 ml of MeOH in low DNA binding tubes (Eppendorf AG, Hamburg, Germany) using stainless steel bead and tissue homogenizer (Tissuelyzer LT, QIAGEN, Hilden, Germany) resulting in a pulpy tissue suspension. The suspension was sonicated for 30 minutes and appropriate volumes containing 100 mg of tissue were placed in different low DNA binding vials and diluted with methanol to 1 ml so that the same amount of tissue and same volume was analyzed for each sample. The samples were centrifuged at 10,000 rpm for 10 minutes at 4° C. resulting in supernatants, which were subjected to fluorescence spectroscopy (FLS).
Quantitative biodistribution of D-Cy5 in vital organs. Quantitative biodistribution in vital organs (liver, kidney, spleen, heart, lungs and serum) and kinetics of D-Cy5 injected intravenously into animals with I/R injury was assessed using FLS (fluorescence spectroscopy) method. For analysis, weight of tissues was measured before being homogenized and D-Cy5 was extracted using methanol as described previously by Lesniak et al. (Molecular pharmaceutics 10 (12), 4560-4571). The D-Cy conjugates were intact stable in human plasma at 37° C. and in vivo, and also the applied methanol extraction protocol yielded best recovery of 96%. The methanol extracts were subjected to fluorescence measurements for emission values using fluorescence spectrophotometer. […]

Data set [3] relates to choroidal neovascularization (CNV). Briefly: CNV area in lipid (HpODE) injected CNV rat model, choroidal flat mounts. The format is in vivo, SD rats. Conditions: systemic, 20 mg/kg on NAC basis, assessed Day 10.
Method: CNV rat model. Male SD rats of ˜300 grams each were chosen for this study. Lipid 3(S)-hydroperoxy-9Z,11E-octadecadienoic acid (HpODE) (Cayman Chemicals, Michigan, USA.) was dissolved in cold borate buffer at a concentration of 500 μg/33 μL. Two μL of lipid was injected sub-retinal on day 1 forming a bleb in retina. By day 3 the lipid bleb was gone and retinal degeneration began. At day 7 post-lipid injection, neovascularization from choroid (CNV) begins to form and inflammation occurs in retina and choroid as well as neovascularization in retina (RNV). This model causes damage to both choroid and retina and has characteristics of both dry and wed AMD forms (FIG. 12A).
Effect of N-acetal-Cysteine (NAC) on CNV model. A combination of D-NAC (dendrimer-NAC; 10 mg/kg on a NAC basis) and 6 mg of D-Cy5 were injected intravenously via penile vein on day 3 post lipid injection and animals were sacrificed on day 7 post injection. The animals injected with D-Cy5 and PBS served as controls. […] The confocal images choroids of D-NAC treated and control groups were analyzed for CNV area measurements using Image-J software. […]
D-NAC was administered on Day 3 (two days after lipid administration), and on day 5 and day 7 at 20 mg/kg on a NAC basis. […] CNV areas were assessed using morphometric analysis (yellow delineation) in Image-J software. […] Values were analyzed using Mann-Whitney t-test with n=12 and P<0.001
The test system of data set [4] is IL-1β, IL-6, MCP-1, TNFα, IL-10. Description: Choroid cytokine levels by ELISA in CNV rat model. The format is in vivo, SD rats. Conditions: n=8 choroids/group.
Method: FIGS. 16A-16C depict that the choroids from the different groups were analyzed using ELISA (n=8 choroids/group).
(§1) CNV rat model. Male SD rats of ˜300 grams each were chosen for this study. Lipid 3(S)-hydroperoxy-9Z,11E-octadecadienoic acid (HpODE) (Cayman Chemicals, Michigan, USA.) was dissolved in cold borate buffer at a concentration of 500 μg/33 μL. Two μL of lipid was injected sub-retinal on day 1 forming a bleb in retina.
The effect of D-NAC choroidal inflammation was assessed in a blinded manner, by measuring proinflammatory (IL-1β, IL-6, MCP-1-monocyte chemoattractant, and TNFα) and anti-inflammatory cytokine levels (IL-10).
Data set [5] shares this test system. Description: Retina cytokine levels by ELISA in CNV rat model. Conditions: n=8/group. The format is in vivo, SD rats.
Method: as §1
The effect of D-NAC on retinal inflammation was assessed in a blinded manner, by measuring proinflammatory (IL-1β, IL-6, MCP-1, and TNFα) and anti-inflammatory (IL-10) cytokine levels.

Regarding `CCN1/C(=C/C=C/C=C/C2=[N+](CCCCCC(=O)O)c3ccc(S(=O)(=O)O)cc3C2(C)C)C(C)(C)c2cc(S(=O)(=O)[O-])ccc21` [free Cy5], the retinal clearance entry in data set [1] is listed as “completely cleared”. The retinal clearance result in data set [1] (iv) is on record as “cleared”. In data set [2] (24 hours), the accumulation in kidney was 0.82±2.93 % of injected dose (ID)/organ and the “fluorescent signal in other organs (than kidney)” value is listed as “could not detect any fluorescent signals”. The “level in any of the organs” value in data set [2] (72 hours) is on record as “not detectable”.

Consider `CC(=O)N[C@@H](CS)C(=O)O` [free NAC, N-acetyl cysteine], for which, in data set [3], the “effect on CNV areas compared to PBS” value is recorded as “some decrease that was not significant”. Moreover, the “proinflammatory cytokines in choroid” value in data set [4] is recorded as “not effective”. Moreover, in data set [5], the “proinflammatory cytokines in retina” value is given as “not effective”.
